Data: US7423008B2, “Derivatives of mithramycin and methods of making and uses thereof” (University of Kentucky Research Foundation, priority 2004, dated 2008)

Assays:
CNS (SF-268) = assay: Proliferation inhibition assay (sulforhodamin B uptake), CNS cells; type: cell-based
Description: (§1) The experiment was performed by Biotecon, Berlin. It measures the uptake of sulforhodamin B (SRB), which is dependent on the cellular protein quantities, and can be performed in 96-well microtiter plates according to the protocol published by Boyd et al. (NCI). The SRB assay is a rapid and sensitive method to measure drug-induced cytotoxicity. Briefly, cells will be incubated with and without drug for 72 hours (drugs will be added after 24 hours), fixed with TCA (trichloroacetic acid), and stained for 30 minutes using a 0.4% (w/v) SRB solution in […]. Cultures will then be rinsed with 1% acetic acid, residual wash solution will be removed and air-dried. Bound dye will be solubilized with 10 mM unbuffered Tris base (pH 10.5) for 5 min., and the optical density (OD) will be measured with amicrotiter plate reader at 564 nm. (Skehan, P. et al., “New calorimetric cytotoxicity assay for anticancer-drug screening,” Journal of the National Cancer Institute, 1990. 82(13): p. 1107-1112).

Lung (NCI-H460) = assay: Proliferation inhibition assay (sulforhodamin B uptake), lung cells; type: cell-based
Description: as §1

Squamous carcinoma = assay: Neutral red assay, squamous carcinoma; type: cell-based; settings: for GI50: read-out: Average Log(GI50) (converted)
Description: (§2) Mithramycin-SK was particularly active against melanoma, leukemia, and CNS cancer cells (log(GI50) values of −7.64, −7.59, and −7.61, respectively).

Lung carcinoma = assay: Neutral red assay, lung carcinoma; type: cell-based; settings: for GI50: read-out: Average Log(GI50) (converted)
Description: as §2

[1] = system: non-tumorous mouse fibroblast cells (NIH 3T3); assay: Neutral red toxicity assay on non-tumorous fibroblasts; type: cell-based; settings: for IC50: NIH3T3, neutral red
Description: Mithramycin-SK and demycarosyl-mithramycin-SK were also tested in a neutral red toxicity assay. In this experiment, non-tumorous mouse fibroblast cells were used (NIH 3T3).
as §2

Renal cancer cell lines = assay: Sulforhodamine B assay, 60 cell line panel: renal; type: cell-based, human; settings: for GI50: Homo sapiens, 60 cell, 8 cell lines, read-out: Average Log(GI50) (converted); for AIF (activity improvement factor, 10^Δ1−x): versus 1
Description: (§3) The cytotoxicity of Mithramycin-SK and demycarosyl-mithramycin-SK were assessed in a panel of 60 cell lines using a sulforhodamine B assay. It is active against a variety of tumor cell lines in the concentration range of 10^−5 to 10^−8 molar. Cell lines were inoculated into a series of 96-well microliter plates with varying seeding densities depending on the growth characteristics of the particular cell lines. Following a 24 hour drug-free incubation, mithramycin-SK was added routinely at five 10-fold dilutions with maximum concentration of […]. After 48 hours of drug exposure, the change in protein stain optical density allowed the inhibition of cell growth to be analyzed.

Melanoma cell lines = assay: Sulforhodamine B assay, 60 cell line panel: melanoma; type: cell-based, human; settings: for GI50: Homo sapiens, 60 cell, 8 cell lines, read-out: Average Log(GI50) (converted); for AIF (activity improvement factor, 10^Δ1−x): versus 1
Description: as §3

Breast carcinoma = assay: Neutral red assay, breast carcinoma; type: cell-based; settings: for GI50: read-out: Average Log(GI50) (converted)
Description: as §2

NSCLC cell lines = assay: Sulforhodamine B assay, 60 cell line panel: NSCLC; type: cell-based, human; settings: for GI50: Homo sapiens, 60 cell, 8 cell lines, read-out: Average Log(GI50) (converted); for AIF (activity improvement factor, 10^Δ1−x): versus 1
Description: as §3

Breast cancer cell lines = assay: Sulforhodamine B assay, 60 cell line panel: breast; type: cell-based, human; settings: for GI50: Homo sapiens, 60 cell, 8 cell lines, read-out: Average Log(GI50) (converted); for AIF (activity improvement factor, 10^Δ1−x): versus 1
Description: as §3

[2] = system: squamous, melanoma, lung, and breast carcinomas; assay: Neutral red uptake analysis of carcinomas, overall; type: cell-based; settings: cells not given
Description: as §2

[3] = system: 60 human cancer cell lines; assay: Sulforhodamine B cytotoxicity assay, whole panel of 60 cell lines (NCI); type: cell-based
Description: The mithramycin SK has antitumor activity substantially higher than that of MTM and is particularly active against melanoma, leukemia and CNS cancer cells.
as §3

Leukemia cell lines = assay: Sulforhodamine B assay, 60 cell line panel: leukemia; type: cell-based, human; settings: for GI50: Homo sapiens, 60 cell, 5 cell lines, read-out: Average Log(GI50) (converted); for AIF (activity improvement factor, 10^Δ1−x): versus 1
Description: as §3

Breast (MCF-7) = assay: Proliferation inhibition assay (sulforhodamin B uptake), breast cells; type: cell-based; settings: concentration 1 × 10^−5 molar
Description: as §1

[4] = system: Prostrate cancer cell lines; assay: Sulforhodamine B assay, 60 cell line panel: prostate; type: cell-based, human; settings: for GI50: Homo sapiens, 60 cell, 2 cell lines, read-out: Average Log(GI50) (converted); for AIF (activity improvement factor, 10^Δ1−x): versus 1
Description: as §3

Melanoma = assay: Neutral red assay, melanoma; type: cell-based; settings: for GI50: read-out: Average Log(GI50) (converted)
Description: as §2

Colon cancer cell lines = assay: Sulforhodamine B assay, 60 cell line panel: colon; type: cell-based, human; settings: for GI50: Homo sapiens, 60 cell, 7 cell lines, read-out: Average Log(GI50) (converted); for AIF (activity improvement factor, 10^Δ1−x): versus 1
Description: as §3

CNS cancer cells = assay: Sulforhodamine B assay, 60 cell line panel: CNS; type: cell-based, human; settings: for GI50: Homo sapiens, 60 cell, 5 cell lines, read-out: Average Log(GI50) (converted); for AIF (activity improvement factor, 10^Δ1−x): versus 1
Description: as §3

[5] = system: Ovarian cancer cell lines; assay: Sulforhodamine B assay, 60 cell line panel: ovarian; type: cell-based, human; settings: for GI50: Homo sapiens, 60 cell, 6 cell lines, read-out: Average Log(GI50) (converted); for AIF (activity improvement factor, 10^Δ1−x): versus 1
Description: as §3

[6] = mouse 3T3 fibroblast (nontumor) cells
[7] = concentration 1 × 10^−4.6 molar

| SMILES | Percent Growth in 48 Hours, CNS (SF-268) (CNS (SF-268); concentration 1 × 10^−5 molar) [%] | Percent Growth in 48 Hours, Lung (NCI-H460) (Lung (NCI-H460); concentration 1 × 10^−5 molar) [%] | GI50 (Squamous carcinoma) [nM] | GI50 (Lung carcinoma) [nM] | IC50 [1, 6] [nM] | GI50 (Renal cancer cell lines) [nM] | AIF (activity improvement factor, 10^Δ1−x) (Renal cancer cell lines) | GI50 (Melanoma cell lines) [nM] | AIF (activity improvement factor, 10^Δ1−x) (Melanoma cell lines) | GI50 (Breast carcinoma) [nM] | GI50 (NSCLC cell lines) [nM] | AIF (activity improvement factor, 10^Δ1−x) (NSCLC cell lines) | GI50 (Breast cancer cell lines) [nM] | AIF (activity improvement factor, 10^Δ1−x) (Breast cancer cell lines) | GI50 (Leukemia cell lines) [nM] | Percent Growth in 48 Hours, Breast (MCF-7) (Breast (MCF-7)) [%] | GI50 [4] [nM] | GI50 (Colon cancer cell lines) [nM] | GI50 (CNS cancer cells) [nM] | GI50 [5] [nM] | also measured |
| --- | --- | --- | --- | --- | --- | --- | --- | --- | --- | --- | --- | --- | --- | --- | --- | --- | --- | --- | --- | --- | --- |
| COC(C(O)C(C)=O)[C@@H]1Cc2cc3cc(OC4CC(OC5CC(O)C(O)C(C)O5)C(O)C(C)O4)c(C)c(O)c3c(O)c2C(=O)[C@H]1OC1CC(OC2CC(OC3CC(C)(O)C(O)C(C)O3)C(O)C(C)O2)C(O)C(C)O1 (stereo partly drawn) [Mithramycin-SK, mithramycin-SK] | 1 | 0.1 | 1020 | 132 | 19600 | 51.3 | 3.6 | 22.9 | 8.3 | 182 | 42.7 | 4.4 | 1290 | 0.2 | 25.7 | 0.2 | 33.1 | 47.9 | 24.5 | 29.5 | AIF (activity improvement factor, 10^Δ1−x) (Squamous carcinoma; versus 1): 8.9; AIF (activity improvement factor, 10^Δ1−x) (Lung carcinoma; versus 1): 91.2; toxicity (concentration still without toxicity) ([1]; NIH 3T3, after 24 hours of incubation): > 200 µg/mL; toxicity compared to parent compound MTM ([1]; in vitro toxicity assay): two orders of magnitude lesser toxicity; fold less toxic than MTM ([1]; mouse 3T3 fibroblast (nontumor) cells, ratio of IC50 values): more than 1500 fold; AIF (activity improvement factor, 10^Δ1−x) (Breast carcinoma; versus 1): 61.6; concentrations revealing antiproliferative activity [2]: < 1 µg/mL; activity, times higher than that of MTM ([3]; compilation of the average log(GI50) values): up to 9 times; antitumor activity compared to parent compound MTM ([3]; initial in vitro anticancer assays by the NCI, 60 human cancer cell lines): up to two orders of magnitude better antitumor activity; AIF (activity improvement factor, 10^Δ1−x) (Leukemia cell lines): 8.7; AIF (activity improvement factor, 10^Δ1−x) [4]: 3.8; GI50 (Melanoma): 562 nM; AIF (activity improvement factor, 10^Δ1−x) (Melanoma; versus 1): 15.8; AIF (activity improvement factor, 10^Δ1−x) (Colon cancer cell lines): 4.7; AIF (activity improvement factor, 10^Δ1−x) (CNS cancer cells): 6.8; AIF (activity improvement factor, 10^Δ1−x) [5]: 8.5 |
| CO[C@@H]1C(=O)C(C(C)=O)=C(O)[C@@]2(O[C@H]3C[C@@H](O)[C@H](O)[C@@H](C)O3)C(=O)c3c(cc4cc(O)cc(O)c4c3O)C[C@@H]12 [Premithramycin A1, reference compound] |  |  |  |  |  |  |  |  |  |  |  |  |  |  |  |  |  |  |  |  | Percent Growth in 48 Hours, CNS (SF-268) (CNS (SF-268); [7]): 93%; Percent Growth in 48 Hours, Lung (NCI-H460) (Lung (NCI-H460); [7]): 68% |
| COC(C(O)C(C)=O)[C@@H]1Cc2cc3cc(OC4CC(OC5CC(O)C(O)C(C)O5)C(O)C(C)O4)c(C)c(O)c3c(O)c2C(=O)[C@H]1OC1CC(OC2CC(O)C(O)C(C)O2)C(O)C(C)O1 (stereo partly drawn) [Demycarosyl-Mithramycin-SK, Demycarosyl-mithramycin-SK] | 47 | 5 |  |  |  | 7240 | 0.03 | 4270 | 0.04 |  | 5010 | 0.04 | 7080 | 0.04 | 2820 | 22 | 5620 | 4470 | 5010 | 5890 | AIF (activity improvement factor, 10^Δ1−x) (Leukemia cell lines): 0.08; AIF (activity improvement factor, 10^Δ1−x) [4]: 0.02; AIF (activity improvement factor, 10^Δ1−x) (Colon cancer cell lines): 0.05; AIF (activity improvement factor, 10^Δ1−x) (CNS cancer cells): 0.03; AIF (activity improvement factor, 10^Δ1−x) [5]: 0.04 |
| CO[C@@H]1C(=O)C(C(C)=O)=C(O)[C@@]2(O[C@H]3C[C@@H](O[C@H]4C[C@@H](O[C@H]5C[C@](C)(O)[C@H](O)[C@@H](C)O5)[C@@H](O)[C@@H](C)O4)[C@H](O)[C@@H](C)O3)C(=O)c3c(cc4cc(O[C@H]5C[C@@H](O[C@H]6C[C@@H](O)[C@H](O)[C@@H](C)O6)[C@H](O)[C@@H](C)O5)c(C)c(O)c4c3O)C[C@@H]12 [Premithramycin B, reference compound] | >100 | >100 |  |  |  |  |  |  |  |  |  |  |  |  |  | >100 |  |  |  |  |  |
| CO[C@H](C(=O)[C@@H](O)[C@@H](C)O)[C@@H]1Cc2cc3cc(OC4CC(OC5CC(O)C(O)C(C)O5)C(O)C(C)O4)c(C)c(O)c3c(O)c2C(=O)[C@H]1OC1CC(OC2CC(OC3CC(C)(O)C(O)C(C)O3)C(O)C(C)O2)C(O)C(C)O1 (stereo partly drawn) [Mithramycin] |  | 12 | 9120 | 12000 | 3.45 to 12.9 | 186 |  | 191 |  | 11200 | 186 |  | 257 |  | 224 | 12 | 126 | 224 | 166 | 251 | GI50 (Melanoma): 8910 nM |
